Assay results published in US20100160391A1, “Substituted Aminopyridines as Fluorescent Reporters for Amide Hydrolases” (priority 2006, published 2010).

Legend:
[1] = target: T1, human FAAH, microsomes from FAAH cells (Homo sapiens, UniProt O00519); assay: Specific activity, microsomes from FAAH cells; type: biochemical
T1 construct: made in house; host or cells: Trichoplusia ni High Five cells infected with recombinant baculovirus Ac-hFAAH; microsomal fraction
T1 sequence (O00519 1-579): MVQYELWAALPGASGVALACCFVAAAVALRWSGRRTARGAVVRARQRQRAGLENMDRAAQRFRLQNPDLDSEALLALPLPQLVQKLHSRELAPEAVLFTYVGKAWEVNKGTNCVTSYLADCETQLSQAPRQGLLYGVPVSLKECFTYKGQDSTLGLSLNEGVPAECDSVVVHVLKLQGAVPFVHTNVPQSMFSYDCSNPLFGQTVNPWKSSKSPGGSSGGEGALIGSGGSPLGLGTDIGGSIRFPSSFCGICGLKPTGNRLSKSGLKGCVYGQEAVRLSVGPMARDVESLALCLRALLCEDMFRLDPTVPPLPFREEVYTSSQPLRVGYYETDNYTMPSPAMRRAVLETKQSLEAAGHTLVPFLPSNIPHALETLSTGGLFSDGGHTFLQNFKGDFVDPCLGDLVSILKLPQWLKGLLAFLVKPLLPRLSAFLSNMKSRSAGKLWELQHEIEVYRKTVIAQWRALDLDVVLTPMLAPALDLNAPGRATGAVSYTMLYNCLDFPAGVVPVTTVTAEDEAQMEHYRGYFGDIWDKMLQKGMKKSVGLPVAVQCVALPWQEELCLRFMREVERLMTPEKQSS
Experimental: Preparation of recombinant human FAAH. Transgenic expression of the human FAAH in a baculovirus system was performed by following the method described in Nishi et al., Arch. Biochem. Biophys., 445:115-123 (2006). The cDNA encoding human FAAH (GenBank Accession No. NM_001441) was amplified by PCR using a human liver cDNA library (Invitrogen; Carlsbad, Calif.) as a template. The primer pair was 5′-[…]-3′ and 5′-[…]-3′. BglII and EcoRI endonuclease sites (underlined) were incorporated just upstream of the start codon and downstream of the stop codon of the coding sequence of FAAH, respectively. The PCR products were cloned into a pCR2.1 vector (Invitrogen) and the nucleotide sequence was verified by DNA sequencing. The cDNA fragments were then excised and directionally ligated to the BglII and EcoRI sites of the baculovirus transfer vector pAcUW21 (Lopez-Ferber et al., Baculovirus transfer vectors, in “Baculovirus Expression Protocols,” Richardson (Ed.), pp 25-63, Humana Press, Totowa, N.J., 1995). Recombinant baculoviruses harboring the human FAAH gene, Ac-hFAAH, were generated by co-transfection of Spodoptera frugiperda-derived Sf21 cells with the recombinant transfer vector plasmid and Bsu36I-cleaved BacPAK6 viral DNA (Clontech Laboratories; Mountain View, Calif.) as described in O'Reilly et al., Baculovirus Expression Vectors: A Laboratory Manual, Oxford University Press, New York, 1992. Trichoplusia ni-derived High Five cells (1×10^6 cells/ml) were inoculated with a high titer of Ac-hFAAH. At 72 hours post-infection, the infected cells were harvested by centrifugation at 2,000×g for 20 min at 4° C. and suspended in 50 mM Tris-HCl (pH 8.0) containing 150 mM NaCl, 1 mM EDTA, 1 μM pepstatin, 100 μM leupeptin, and 0.1 mg/ml aprotinin. The cell suspension was then homogenized using a Polytron homogenizer and centrifuged at 10,000×g for 20 min at 4° C. The microsomal fraction was collected by ultracentrifugation of the supernatant at 100,000×g for 60 min at 4° C. The pellet was resuspended in 20 mM Tris-HCl (pH 8.0) containing 10% (w/v) glycerol and 1% (w/v) Triton-X 100 and stored at −80° C. until use.
(§1) Comparison of the lowest detection limits of protein concentration of FAAH toward colorimetric and fluorescent substrates. In general, all assays were performed in 96-well styrene flat-bottom microtiter plates with a Spectra Max M2 spectrophotometer at 37° C. for […]. The total volume of each well was 201 μl consisting of 0.1 M sodium phosphate buffer (pH 8.0) (190 μl) containing 1% glycerol and 0.1% Triton-X 100, stock or diluted protein solution (10 μl), and the substrate solution (1 μl) in ethanol (final concentration 200 μM for 10, 11, 13 or 14) or in DMSO (final concentration 25 μM for 12, 15, or 16; 50 μM for 17). The lowest detection limits of microsomal fatty acid amide hydrolase (FAAH) by substrates were determined by the fact that the signal at 10 min after kinetic measurements are equal to or over three times the noise or basal line at 0 min. Colorimetric substrate (16) assays were performed in clear 96-well microtititer plates using an absorbance wavelength at 382 nm. The fluorescent substrates containing 5-amino-2-methoxypyridine (e.g., 10, 13) were measured at an excitation wavelength (302 nm), emission wavelength (396 nm), and auto cutoff wavelength (325 nm). Similarly, the fluorescent substrates containing 5-amino-2-methoxy-6-methylpyridine (e.g., 11, 14, and 17) were measured at an excitation wavelength (304 nm), emission wavelength (392 nm), and an auto cutoff wavelength of 325 nm. In addition, an excitation wavelength (366 nm), emission wavelength (496 nm), and auto cutoff wavelength (495 nm) were used for the substrates (e.g., 12 and 15) containing 7-amino-4-trifluoromethyl coumarin.
Specific activity determination. The assays for specific activities were performed as described above for the sensitivity assay. […]

[2] = tested on: amidases, human liver microsomes; assay: Specific activity, human liver microsomes; type: biochemical; settings: pH 8.0, 37° C.; NM = not measurable at the same protein concentration as other substrates
Experimental: as §1
Specific activity determination. The assays for specific activities were performed as described above for the sensitivity assay. The specific activity presented is based on the following: 1) the signal after a 10 min enzymatic reaction was at least 3 fold the baseline signal at 0 min, and 2) the amount of hydrolyzed substrate during a 10 min period was less than 10% of the total amount of the substrate added. To correct for protein-induced fluorescence quenching, a standard curve of 5-amino-2-methoxypyridine (6) or 5-amino-2-methoxy-6-methylpyridine (8) was constructed in the presence of the same protein concentration used for the assay of that enzyme.

## CCCCCCCC(=O)Nc1ccc(OC)nc1 [Compound 13, N-(6-methoxypyridin-3-yl) octanamide]
[1]
  enhancement of activity, microsomes from FAAH-expressing cells compared with High Five cells: 254 times
[1]; Table 4
  preference of FAAH for substrate (13) over (14), specific activity: 10 times
[1]; pH 8.0, 37° C., NM = not measurable at the same protein concentration as other substrates
  Specific activity, Microsomes from FAAH cells: 202.6 ± 3.3 nmol/min/mg protein
[2]
  Specific activity, Human liver microsomes: 0.46 ± 0.06 nmol/min/mg protein
